Results taken from patent US20200308616A1, “PROCESS FOR PRODUCING HIGH PURITY STEVIOL GLYCOSIDES” (PureCircle Sdn Bhd, priority 2015, published 2020).
Read-outs that look alike come from different tables or passages of the source.

Legend:
gut microbiome = conditions: cited from earlier work
microbial strains = test: Indirect assay: growth with RebA as the only carbon source and RebA degradation by the soluble fraction of the cell extract; format: cell-based; conditions: defined mineral medium, 10 g/L RebA as only carbon source, 28° C., 72 h; 19 microbial strains
Description: Microbial strains were assayed for their ability to assimilate RebA from the culture medium by growing the strains in a defined mineral medium with RebA as the only carbon source.
This medium contained (per liter): 10 g RebA, 5 g (NH4)2SO4, 3 g KH2PO4, 0.5 g MgSO4×7H2O, 15 mg EDTA, 4.5 mg ZnSO4×7H2O, 0.3 mg CoCl2×6H2O, 1 mg MnCl2×4H2O, 0.3 mg CuSO4×5H2O, 4.5 mg CaCl2×2H2O, 3 mg FeSO4×7H2O, 0.4 mg NaMoO4×2H2O, 1 mg H3BO3, 0.1 mg KI, 0.05 mg biotin, 1 mg calcium pantothenate, 25 mg inositol, 1 mg thiamine HCl, 1 mg pyridoxine HCl, 0.2 mg para-aminobenzoic acid. A volume of 1 mL culture medium was inoculated with 10 μl of an overnight culture grown.
All cultivations were performed in 96 square well plates on a laboratory shaker with 300 rpm and 5.1 cm shaking diameter at 28° C. for 72 h. Growth was monitored by mixing 50 μL or culture volume with 50 μL ethanol in a 96 well plate and subsequently measuring the optical density at 600 nm (OD600) in a spectrophotometer (Molecular Devices). […]
Then, 70 μL of a 2 g/L RebA solution was added to the soluble fraction before incubation at 72 h at 28° C. RebA was detected by LC-MS set to single ion monitoring (SIM) mode, negative mode, m/z=965.60.
The difference in RebA concentration between the start and the end of the incubation was calculated for each soluble fraction. […]

[1] = system: Kluyveromyces marxianus strain; test: Direct assay: quantification of intracellular RebA by LC-MS; format: cell-based
Description: The selected microbial strain was cultivated in a defined mineral medium with RebA as the only carbon source. This medium contained (per liter): 9 g RebA, 5 g (NH4)2SO4, 3 g KH2PO4, 0.5 g MgSO4×7H2O, 15 mg EDTA, 4.5 mg ZnSO4×7H2O, 0.3 mg CoCl2×6H2O, 1 mg MnCl2×4H2O, 0.3 mg CuSO4×5H2O, 4.5 mg CaCl2×2H2O, 3 mg FeSO4×7H2O, 0.4 mg NaMoO4×2H2O, 1 mg H3BO3, 0.1 mg KI, 0.05 mg biotin, 1 mg calcium pantothenate, 25 mg inositol, 1 mg thiamine HCl, 1 mg pyridoxine HCl, 0.2 mg para-aminobenzoic acid. A volume of 20 mL culture medium was inoculated with a single colony. All cultivations were performed in 25 mL culture medium in a 300 mL non-baffled shake flask on a laboratory shaker with 250 rpm and 2.5 cm shaking diameter at 28° C. for 72 h. The complete culture was transferred to a beaker containing 125 mL of a solution containing 45 ppm 4-Nitrophenyl β-D-glucopyranoside in 60% methanol in water that was pre-cooled to −40° C. The mixture was then transferred to three 50 mL centrifugation tubes that were pre-cooled on dry ice and centrifuged below 0° C. at 4248 g for 10 min. Subsequently, an aliquot of the supernatant (quench) was stored at −80° C. and the rest of the supernatant was discarded, while the pellet was kept on dry ice. Then 5 mL 60% methanol in water pre-cooled on dry ice was used to re-suspend the 3 pellets. The re-suspended pellets were transferred to a single 15 mL centrifugation tube precooled on dry ice and centrifuged below 0° C. at 4248 g for 10 min. Then the supernatant was discarded and the pellet was re-suspended in fresh 5 mL 60% methanol in water pre-cooled on dry ice and the suspension was centrifuged below 0° C. at 4248 g for 10 min. Then the supernatant was discarded and the pellet was re-suspended again in fresh 5 mL 60% methanol in water pre-cooled on dry ice and the suspension was centrifuged below 0° C. at 4248 g for 10 min. […] The concentration of RebA in quench, wash, and cell extract was quantified by LC-MS (FIG. 2), in which the error bars indicate the standard error of mean from 2 parallel experiments.

Row | SMILES | degradation by the gut microbiome (gut microbiome; Gardana et al., 2003) | degradation by the gut microbiome (gut microbiome) | assimilation of RebA from the culture medium (microbial strains) | concentration of RebA in the cell extract versus quench and wash solutions ([1]; 9 g/L RebA as only carbon source, 72 h, LC-MS, FIG. 2, 2 parallel experiments) | concentration of RebA in the wash solution versus quench solution ([1]; LC-MS, FIG. 2) | intracellular accumulation of RebA ([1]; conclusion from cell extract versus quench and wash concentrations)
1 | C=C1C[C@@]23CC[C@H]4[C@@](C)(CCC[C@@]4(C)C(=O)O)[C@@H]2CC[C@]1(O)C3 [steviol] | not metabolized further |  |  |  |  | 
2 | C=C1C[C@@]23CC[C@H]4[C@@](C)(CCC[C@@]4(C)C(=O)O[C@@H]4O[C@H](CO)[C@@H](O)[C@H](O)[C@H]4O)[C@@H]2CC[C@]1(O[C@@H]1O[C@H](CO)[C@@H](O)[C@H](O[C@@H]2O[C@H](CO)[C@@H](O)[C@H](O)[C@H]2O)[C@H]1O[C@@H]1O[C@H](CO)[C@@H](O)[C@H](O)[C@H]1O)C3 [RebA, Rebaudioside A] |  | glucose residues are cleaved off | found to assimilate RebA | exceeds that in the quench and wash solutions | higher than in the quench solution | accumulated intracellularly
